Measured values: article PMC7982615, “Phase 1 study of telisotuzumab vedotin in Japanese patients with advanced solid tumors” (Cancer Medicine, 2021)
Read-outs that look alike come from different tables or passages of the source.

How the values were obtained:
advanced solid tumors [1] = experiment: Preliminary antitumor activity, RECIST version 1.1; type: in vivo, human; details: for PFS estimate at 6 months / Median PFS / Median duration of overall response / PFS estimate at 9 months: [95% CI]; for Median PFS: Kaplan–Meier
Source text: Evaluation of tumor response to determine the objective response rate (ORR), progression‐free survival (PFS), and duration of response was based on RECIST version 1.1 criteria.
All data were summarized and tabulated by dose cohort. Categoric data were summarized in terms of frequency counts and percentages. Continuous data were summarized using descriptive statistics, including number of observations, mean, standard deviation, median, minimum, and maximum. No formal statistical analysis was performed for efficacy variables, which were all exploratory in nature. ORR was defined as the proportion of patients with a confirmed partial response (PR) or complete response (CR). Duration of response was defined as time from a patient's initial objective response to the first date of disease progression (PD) or death. The overall disease control rate was defined as the proportion of patients with CR, PR, or stable disease (SD). […] PFS was estimated using the Kaplan–Meier method. Efficacy analyses are presented with two‐sided exact 95% binomial CI.

[2] = Pharmacokinetics of teliso‐v conjugate and MMAE, noncompartmental; type: in vivo, human; details: for AUCinf, conjugate / Cmax, conjugate: geometric mean (%CV); for t1/2, conjugate: harmonic mean (min-max); for Tmax, conjugate: median (min-max)
Experimental: PK samples were also collected on cycles 2 and 4 predose and approximately 30 minutes after the end of infusion on day 1. PK parameters such as peak concentration (Cmax), time to peak concentration, area under the concentration‐time curve (AUC), and terminal half‐life (t1/2) were determined using noncompartmental methods.

advanced solid tumors [3] = details: cited from earlier work
[4] = total, N = 9, listed as telisotuzumab vedotin
[5] = total, N = 9, listed as teliso-v
[6] = first administration, cycle 1, across 2.4 and 2.7 mg/kg

Teliso‐v: antibody‐drug conjugate: anti–c‐Met humanized monoclonal antibody ABT‐700 coupled to monomethyl auristatin E through a valine‐citrulline linker, drug:antibody ratio approximately three
Complete response (advanced solid tumors [1]; 2.4 mg/kg Q3W, n = 3): 0 n (%)
Disease control rate (advanced solid tumors [1]; 2.4 mg/kg Q3W, n = 3): 3 (100) [NA] n (%) [95% CI]
Objective response rate (advanced solid tumors [1]; 2.4 mg/kg Q3W, n = 3): 0 n (%)
Partial response (advanced solid tumors [1]; 2.4 mg/kg Q3W, n = 3): 0 n (%)
Progressive disease (advanced solid tumors [1]; 2.4 mg/kg Q3W, n = 3): 0 n (%)
Stable disease (advanced solid tumors [1]; 2.4 mg/kg Q3W, n = 3): 3 (100) n (%)
PFS estimate at 6 months (advanced solid tumors [1]; 2.4 mg/kg Q3W, n = 3): 33.3 [0.9–77.4] %
Median PFS (advanced solid tumors [1]; 2.4 mg/kg Q3W, n = 3): 4.1 [2.8–7.1] months
Complete response (advanced solid tumors [1]; 2.7 mg/kg Q3W, n = 6): 0 n (%)
Objective response rate (advanced solid tumors [1]; 2.7 mg/kg Q3W, n = 6): 2 (33) n (%)
Partial response (advanced solid tumors [1]; 2.7 mg/kg Q3W, n = 6): 2 (33) n (%)
Progressive disease (advanced solid tumors [1]; 2.7 mg/kg Q3W, n = 6): 1 (17) n (%)
Stable disease (advanced solid tumors [1]; 2.7 mg/kg Q3W, n = 6): 3 (50) n (%)
Median duration of overall response (advanced solid tumors [1]; 2.7 mg/kg Q3W, n = 6): 8.2 [7.2–9.1] months
PFS estimate at 6 months (advanced solid tumors [1]; 2.7 mg/kg Q3W, n = 6): 83.3 [27.3–97.5] %
PFS estimate at 9 months (advanced solid tumors [1]; 2.7 mg/kg Q3W, n = 6): 83.3 [27.3–97.5] %
Median PFS (advanced solid tumors [1]; 2.7 mg/kg Q3W, n = 6): 10.4 [1.2–12.0] months
Patients with PD (advanced solid tumors [1]; N = 9): one
Patients with SD (advanced solid tumors [1]; N = 9): six
Patients with PR (advanced solid tumors [1]; N = 9, both at 2.7‐mg/kg (urothelial, ovarian cancer)): Two
Reduction of sum of the tumor size (advanced solid tumors [1]; single patient, 27 weeks after teliso-v initiation): 73%
Sum of the tumor size (advanced solid tumors [1]; single patient, lung metastasis, 27 weeks after teliso-v initiation, baseline 64.4 mm): 17.3 mm
Patients with reduction in tumor size from baseline (advanced solid tumors [1]; thymic cancer, NSCLC, ovarian cancer, urothelial cancer): Four
Complete response (advanced solid tumors [1]; total, N = 9): 0 n (%)
Objective response rate (advanced solid tumors [1]; total, N = 9): 2 (22) n (%)
Overall disease control rate (advanced solid tumors [1]; total, N = 9): 89%
PFS estimate at 6 months (advanced solid tumors [1]; total, N = 9): 64.0 [23.8–86.6] %
PFS estimate at 9 months (advanced solid tumors [1]; total, N = 9): 48.0 [12.3–76.9] %
Median PFS (advanced solid tumors [1]; total, N = 9): 7.1 [1.2–10.4] months
Median PFS (advanced solid tumors [1]; [4]): 7.1 months
Median duration of overall response (advanced solid tumors [1]; [5]): 8.2 [7.2–9.1] months
Median duration of overall response (advanced solid tumors [1]; total, N = 9, listed as teliso‐v): 8.2 months
Partial response (advanced solid tumors [1]; [5]): 2 (22) n (%)
Progressive disease (advanced solid tumors [1]; [5]): 1 (11) n (%)
Stable disease (advanced solid tumors [1]; [5]): 6 (67) n (%)
Partial response (advanced solid tumors [1]; [4]): 22%
Progressive disease (advanced solid tumors [1]; [4]): 11%
Stable disease (advanced solid tumors [1]; [4]): 67%
Dose proportionality of systemic exposure ([2]; 2.4 and 2.7 mg/kg, cycle 1): approximately dose proportional
t1/2 ([2]; N = 9, both dose levels): 72 to 96 h
AUCinf, conjugate ([2]; cycle 1, 2.4 mg/kg IV, n = 3): 4437 (19) µg*h/mL
Cmax, conjugate ([2]; cycle 1, 2.4 mg/kg IV, n = 3): 55.5 (26) µg/mL
t1/2, conjugate ([2]; cycle 1, 2.4 mg/kg IV, n = 3): 4.18 (3.8–4.7) days
Tmax, conjugate ([2]; cycle 1, 2.4 mg/kg IV, n = 3): 1 (1–1) h
AUCinf, conjugate ([2]; cycle 1, 2.7 mg/kg IV, n = 6): 5202 (23) µg*h/mL
Cmax, conjugate ([2]; cycle 1, 2.7 mg/kg IV, n = 6): 63.0 (22) µg/mL
t1/2, conjugate ([2]; cycle 1, 2.7 mg/kg IV, n = 6): 2.91 (2.5–3.9) days
Tmax, conjugate ([2]; cycle 1, 2.7 mg/kg IV, n = 6): 1 (1–1) h
AUC from zero to infinity, preliminary geometric mean [2, 6]: 4,400–5,200 µg*h/ml
Serum Cmax, preliminary geometric mean [2, 6]: 55.5 to 63.0 µg/mL
Accumulation in cycle 3 ([2]; multiple dosing Q3 W): 1.1–1.2 fold
Tolerability (advanced solid tumors [3]; 2.7 mg/kg Q3 W): well tolerated
Patients with PR (advanced solid tumors [3]; c‐Met‐positive NSCLC): three of 14
Recommended phase 2 dose (RP2D) (advanced solid tumors [3]; every 3 weeks, preceding phase 1 study outside of Japan): 2.7 mg/kg
Frequency of corneal epithelium disorder (advanced solid tumors [3]; non‐Japanese patients, nine of 116, teliso‐v monotherapy, ref data on file): 7.8%
